The values below come from paper PMC9921564, “Novel Indole-Containing Hybrids Derived from Millepachine: Synthesis, Biological Evaluation and Antitumor Mechanism Study” (Molecules, 2023).

SMILES strings stand for the structures.

Assay [1] deals with A549 cells. Kind of assay: intracellular ROS detection by DCFH-DA. The format is cell-based, human. The following applies: A549, 10, 20 and 50 nM, 12 h. An excerpt: The intrinsic mitochondrial pathway is one of the most well-studied mechanisms relevant to cell apoptosis. ROS accumulation and mitochondrial membrane potential (MMP) alteration play crucial roles in this pathway. In this study, a fluorescent dye including DCFH-DA and JC-1 was used to monitor the intracellular ROS and MMP, respectively.
Figure 5 ROS accumulation and MMP alteration induced by compound 14b. (A,B) The intracellular ROS detection by DCFH-DA after A549 cells treated with compound 14b at indicated concentrations for 12 h. (C,D) The detection of MMP monitored by JC-1 dye after A549 cells treated with compound 14b at the concentrations of 10, 20 and 50 nM for 12 h. […]
samples were fixed in ice-cold 70% ethanol overnight and removed with ice-cold PBS for three times. […] After the incubation, the prepared cell samples were immediately analyzed. Almost 10,000 events were detected by flow cytometry (Beckman Coulter, CytoFlex LX). The data regarding the number of cells in different phases of the cell cycle were or apoptotic cells were analyzed by […]
Caspase-3 activity was measured according to the manufacturer ’s instructions using a GreenNuc™ Caspase-3 assay kit for live cells (Beyotime, China). […] After incubation, the fluorescence intensity (excitation wavelength:
485 nm, emission wavelength: 515 nm) was recorded using a multifunctional microplate reader (Thermo Scientific, Varioskan LUX). […]

Assay [2] relates to MCF-7/DOX (MCF-7 cell line resistant to doxorubicin). Kind of assay: CCK-8 cytotoxicity, MCF-7/DOX. Conditions: Homo sapiens, MCF7-DOX; 48 h, CCK-8, doxorubicin-resistant; read-out: IC50, Mean ± SE, MCF-7/DOX. The format is cell-based. How it is done:
Besides the high cytotoxicity, drug resistance is the other limiting factor of chemotherapeutics. In this study, the cytotoxicities of compound 14b towards five kinds of drug-resistant cancer cell lines were also evaluated. Except three kinds of cell lines that are resistant to three drugs commonly used in clinical practice, two kinds of cell lines that are resistant to MTAs were also evaluated.
A549 (non-small-cell-lung cancer cell line), Caski (human epithelial cervical cancer cell line), HepG2 (human liver carcinoma cell line), MCF-7 (human breast carcinoma cell line), C42B (human prostate cancer line C42B), L-02 (human normal hepatocytes), RWPE-1 (human prostate epithelial cells) and MCF-10A (human normal mammary epithelial cells) were obtained from National Collection of Authenticated Cell Cultures (Shanghai, China). […]
After 24 h, the medium containing different concentrations of tested compounds were added for another 48 h. […] The optical density was recorded with a microplate reader at 570 nm (Thermo Scientific, Varioskan LUX). All the experiments were repeated independently at least three times and the IC50 values were calculated […]
The fluorescence intensity enhancement (emission wavelength is 410 nm, excitation wavelength is 340 nm) was recorded every 60 s for 60 min in a multifunction microplate reader (Molecular Devices, Flex Station 3). […]

As for `COc1ccc(C(=O)c2ccc3c(ccn3C)c2)c2c1C=CC(C)(C)O2` [compound 14b, (5-methoxy-2,2-dimethyl-2H-chromen-8-yl)(1-methyl-1H-indol-5-yl)methanone], the “level of ROS” value in assay [1] is recorded as “significantly rose abruptly in a dose-dependent manner”. Moreover, in assay [2], the IC50 amounted to 51 ± 24 nM.
